Experimental data taken from the supplement of paper PMC10307832.

What was measured:
Assay in all cases: relative viability (nuclei count vs DMSO), 5 days (fraction); higher = more cells survive
RU-SKI 43 + Bortezomib = compound: CC[C@@H](C)CNCC(=O)N1CCC2=C([C@@H]1COC3=CC=CC(=C3)C)C=CS2 [RU-SKI 43] + CC(C)C[C@H](NC(=O)[C@H](Cc1ccccc1)NC(=O)c1cnccn1)B(O)O [Bortezomib] (partner 0.002 µM)
Method in brief: (§1)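 Dosing by pin tool came one day after lung cancer cell lines were seeded in 1536-well plates, using either one drug or a fixed anchor-drug dose plus five library-drug doses (not always all listed) in √10 steps. After 5 days, nuclei were counted on 4× images. Relative viability is treated-well nuclei count divided by vehicle-well nuclei count, and values are medians of duplicate plates.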

Irinotecan + Phenformin = compound: CCc1c2c(nc3ccc(OC(=O)N4CCC(N5CCCCC5)CC4)cc13)-c1cc3c(c(=O)n1C2)COC(=O)[C@]3(O)CC [Irinotecan] + N=C(N)NC(=N)NCCc1ccccc1 [Phenformin] (partner 250 µM)
Method in brief: as §1

RU-SKI 43 + Tozasertib = compound: CC[C@@H](C)CNCC(=O)N1CCC2=C([C@@H]1COC3=CC=CC(=C3)C)C=CS2 [RU-SKI 43] + Cc1cc(Nc2cc(N3CCN(C)CC3)nc(Sc3ccc(NC(=O)C4CC4)cc3)n2)n[nH]1 [Tozasertib] (partner 0.1 µM)
Method in brief: as §1

Irinotecan + Decitabine = compound: CCc1c2c(nc3ccc(OC(=O)N4CCC(N5CCCCC5)CC4)cc13)-c1cc3c(c(=O)n1C2)COC(=O)[C@]3(O)CC [Irinotecan] + Nc1ncn([C@H]2C[C@H](O)[C@@H](CO)O2)c(=O)n1 [Decitabine] (partner 2 µM)
Method in brief: as §1

| Cell Line | relative viability (RU-SKI 43 + Bortezomib; first compound 0.1 µM) | relative viability (RU-SKI 43 + Bortezomib; first compound 0.3162 µM) | relative viability (RU-SKI 43 + Bortezomib; first compound 1 µM) | relative viability (RU-SKI 43 + Bortezomib; first compound 3.162 µM) | relative viability (RU-SKI 43 + Bortezomib; first compound 10 µM) | relative viability (Irinotecan + Phenformin; first compound 2 µM) | relative viability (Irinotecan + Phenformin; first compound 6.325 µM) | relative viability (Irinotecan + Phenformin; first compound 20 µM) | relative viability (RU-SKI 43 + Tozasertib; first compound 0.1 µM) | relative viability (RU-SKI 43 + Tozasertib; first compound 0.3162 µM) | relative viability (RU-SKI 43 + Tozasertib; first compound 1 µM) | relative viability (RU-SKI 43 + Tozasertib; first compound 3.162 µM) | relative viability (RU-SKI 43 + Tozasertib; first compound 10 µM) | relative viability (Irinotecan + Decitabine; first compound 2 µM) | relative viability (Irinotecan + Decitabine; first compound 6.325 µM) | relative viability (Irinotecan + Decitabine; first compound 20 µM) | relative viability (Irinotecan + Phenformin; first compound 0.6325 µM) | relative viability (Irinotecan + Decitabine; first compound 0.6325 µM) |
| --- | --- | --- | --- | --- | --- | --- | --- | --- | --- | --- | --- | --- | --- | --- | --- | --- | --- | --- |
| NCI-H1734 | 0.971 | 1.08 | 0.917 | 0.824 | 0.789 | 0.357 | 0.244 | 0.17 | 0.238 | 0.217 | 0.276 | 0.258 | 0.267 | 0.27 | 0.18 | 0.197 |  |  |
| NCI-H1755 | 0.978 | 1.14 | 1.04 | 0.941 | 0.986 | 0.603 | 0.296 | 0.307 | 0.622 | 0.651 | 0.602 | 0.571 | 0.496 | 0.503 | 0.427 | 0.491 | 0.498 | 0.58 |
| NCI-H1915 | 1.05 | 1.39 | 1.1 | 0.959 | 1.02 | 0.27 | 0.2 | 0.195 | 0.435 | 0.516 | 0.38 | 0.469 | 0.4 | 0.189 | 0.134 | 0.126 | 0.268 | 0.216 |
| NCI-H1975 | 0.441 | 0.421 | 0.464 | 0.4 | 0.34 | 0.448 | 0.296 | 0.194 | 0.755 | 0.852 | 0.854 | 0.712 | 0.574 | 0.438 | 0.342 | 0.141 | 0.407 | 0.374 |
| NCI-H1993 | 1.04 | 1.01 | 1.15 | 1.1 | 0.756 | 0.503 | 0.531 | 0.551 | 0.566 | 0.569 | 0.585 | 0.588 | 0.564 | 0.581 | 0.542 | 0.6 | 0.536 |  |
| NCI-H2009 | 1.05 | 1.02 | 1.01 | 1.12 | 0.968 | 0.411 | 0.232 | 0.167 | 0.725 | 0.896 | 0.727 | 0.64 | 0.504 | 0.32 | 0.266 | 0.135 | 0.421 | 0.358 |
| NCI-H2023 | 0.88 | 1.21 | 1.04 | 1.15 | 0.932 | 0.391 | 0.178 | 0.0825 | 0.32 | 0.438 | 0.516 | 0.424 | 0.218 | 0.209 | 0.141 | 0.0603 | 0.415 | 0.264 |
| NCI-H2085 | 1.03 | 1.08 | 1.1 | 0.995 | 0.988 | 0.702 | 0.559 | 0.478 | 0.716 | 0.71 | 0.854 | 0.743 | 0.671 | 0.391 | 0.38 | 0.382 | 0.662 | 0.536 |
| NCI-H2087 | 0.759 | 0.942 | 0.996 | 0.735 | 0.925 | 0.341 | 0.192 | 0.176 | 0.264 | 0.233 | 0.294 | 0.225 | 0.225 | 0.218 | 0.196 | 0.159 | 0.218 | 0.146 |
| NCI-H2126 | 1.15 | 1.25 | 1.23 | 1.12 | 1.08 | 0.53 | 0.355 | 0.285 | 0.817 | 0.917 | 0.962 | 0.854 | 0.74 | 0.372 | 0.295 | 0.267 |  | 0.503 |
| NCI-H2347 | 0.951 | 1.16 | 1.01 | 0.976 | 0.994 | 0.263 | 0.298 | 0.246 | 0.448 | 0.449 | 0.523 | 0.535 | 0.501 | 0.626 | 0.599 | 0.547 | 0.284 | 0.652 |
| NCI-H2405 | 0.957 | 1.03 | 1.02 | 0.936 | 0.773 | 0.392 | 0.309 | 0.279 | 0.73 | 0.705 | 0.713 | 0.701 | 0.629 | 0.667 | 0.411 | 0.255 |  |  |
| NCI-H3122 | 1.06 | 0.924 | 0.993 | 1.02 | 0.978 | 0.341 | 0.235 | 0.088 | 0.372 | 0.416 | 0.495 | 0.392 | 0.369 | 0.163 | 0.117 | 0.127 | 0.364 | 0.232 |
| PC-3 [JPC-3] | 0.848 | 0.747 | 0.82 | 0.881 | 0.827 | 0.472 | 0.318 | 0.349 | 0.815 | 0.953 | 1.02 | 0.959 | 0.773 | 0.927 | 0.655 | 0.365 | 0.424 | 0.805 |
| PC-14 | 0.793 | 1.19 | 0.942 | 0.848 | 0.66 | 0.661 | 0.242 | 0.155 | 0.635 | 0.522 | 0.7 | 0.554 | 0.471 | 0.182 | 0.12 | 0.111 |  | 0.184 |
| RERF-LC-KJ | 1.12 | 1.39 | 1.17 | 1.2 | 1.2 | 0.325 | 0.345 | 0.246 | 0.458 | 0.583 | 0.476 | 0.505 | 0.352 | 0.792 | 0.482 | 0.154 | 0.47 | 0.539 |
| SK-LU-1 | 1.37 | 1.18 | 1.39 | 1.15 | 1.24 | 0.35 | 0.276 | 0.283 | 0.331 | 0.365 | 0.322 | 0.305 | 0.287 | 0.504 | 0.423 | 0.25 | 0.429 | 0.498 |
| SW 1573 | 1.13 | 1.42 | 1.16 | 0.947 | 0.901 | 0.425 | 0.248 | 0.146 | 0.209 | 0.22 | 0.204 | 0.123 | 0.196 | 0.511 | 0.173 | 0.0927 | 0.32 | 0.445 |
